# Results from a melting point compilation (Tetko et al.; mined from patent text by program, amines drawn as free bases though some values may be those of a salt).
row,SMILES,melting point [°C]
1,C=CCn1c(=O)c2cc(C(=O)O)cn2c2ccccc21,306 to 308
2,CCOC(=O)c1cc(=O)c2c(C)c(Cl)c(C)cc2o1,114 to 116
3,Cc1cc2c(N3CCC(CCO)CC3)ccc(C#N)c2o1,106 to 107
4,[N-]=[N+]=C(C(=O)CC1CC(=O)N1)C(=O)OCc1ccc([N+](=O)[O-])cc1 (stereo not drawn),114 to 116
5,Oc1ccc2cc(-c3noc4cc(O)ccc34)ccc2c1,280 to 282
6,CC(SC1COC(c2cccc(C(=O)Nc3ccc(C#N)cc3)c2)OC1)C(O)(Cn1cncn1)c1ccc(F)cc1F (stereo not drawn),105
7,"CC(NC(=O)c1c(Cl)ccnc1Cl)c1ncc(C(F)(F)F)cc1Cl (single isomer, unassigned; (+))",110 to 111
8,COCc1cnc2c([N+](=O)[O-])cc(C)cc2c1Cl,107 to 111
9,NCCCOc1ccc(-c2nnc(CSCCOc3ccccc3)o2)cc1,30 to 35
10,O=C1Nc2cc([N+](=O)[O-])ccc2OC1(C(F)F)C(F)F,178 to 181
11,OC(Cn1ccnc1)(c1ccc(Cl)cc1)c1ccc(Cl)cc1,208 to 210
12,Fc1cccc(F)c1Cn1nnc2c(Cl)nccc21,133 to 139
13,CC(=O)N1CCC(OCCOc2ccc(C(N)=O)cc2)CC1,154 to 155
14,O=C(NO)C1C2CCC(CC2)C1S(=O)(=O)c1ccc(Oc2ccccc2)cc1 (stereo not drawn),89.9 to 91.8
15,CC(=O)OCc1ccc(CC(C)NCC(O)c2ccccc2)cc1 (stereo not drawn),78 to 82
16,O=C(OC(c1ccccc1)c1ccccc1)c1c(-c2ccccc2)oc2c(CCl)cccc2c1=O,186
17,C=CC(=O)OC1CC(C)(C)N(OC2CCCCC2)C(C)(C)C1,49 to 52
18,O=C(Cn1cc(-c2ccccc2)cc(NC(=O)OCc2ccccc2)c1=O)NC(Cc1ccccc1)C(=O)C(F)(F)F (stereo not drawn),147 to 151
19,CC(C)CN1C2=NCCN2C(=O)C(N=O)=C1N,203 to 205
20,COC(=O)C(=Cc1c[nH]c2cc(Cl)ccc12)[N+](=O)[O-],159 to 160
21,Brc1cncc(-c2ccccc2Oc2ccccc2)c1,109
22,CC(C)(C)OC(=O)/C(=C/c1ccccc1)C(=O)c1ccccc1O,109 to 110
23,CCCCCCCCCN(CCC)CCC(O)(P(=O)(O)O)P(=O)(O)O,45 to 47
24,C#CCN1CCC(C(C)(C)CO)CC1,78 to 82
25,C=CCOC(=O)c1c(C)c(OC)cc(O[Si](C)(C)C(C)(C)C(C)C)c1C=O,81 to 82

# The remaining lines, values ahead:
row,melting point [°C],SMILES
1,105 to 106,COc1ccc(C(C#Cc2ccccc2)Cc2nnc(C)o2)cc1OC1CCCC1 (racemic)
2,182 to 185,COc1cc2cc3c(Nc4ccc(OCc5ccccc5)c(Cl)c4)c(C#N)cnc3cc2cc1OCCCl
3,128 to 130,COc1ccc2oc3ccccc3c(=O)c2c1
4,84 to 101,COc1cc2c(cc1Nc1ncc(Cl)c(Nc3ccccc3S(=O)(=O)N(C)C)n1)CCN(CCS(C)(=O)=O)CC2
5,216 to 220,O=C(CC1CCNCC1)Nc1cccc(-c2ccnc3c(C(=O)c4cccs4)cnn23)c1
6,77,COc1ccc(Nc2nc(NCCN)nc(NC3CCCCCC3)n2)cc1Cl
7,165 to 166,Cc1cc(-c2ccccc2)n2ncc(C(=O)c3ccccc3)c2n1
8,112 to 114,COc1ccccc1-c1ccc(C)n1CC[C@H]1C[C@H](O)CC(=O)O1 (relative stereo)
9,46 to 47,CCOC(=O)c1cccc(-c2ccc3c(n2)C(O)CC3)c1 (stereo not drawn)
10,194 to 195,OC1c2ccc(OCc3ccccc3)cc2OCC1N1CCC(O)(c2ccc(F)cc2)CC1 (stereo not drawn)
11,238 to 239,NC(=O)c1c(Cl)c(-c2ccccc2)n2c1CN(C(=O)c1ccco1)CC2
12,231 to 232,O=C(Cn1c(-c2ccc(Cl)cc2)nc2cccnc21)NC1CC1
13,163 to 167,COc1ccccc1Cc1cnc(NCCSCc2nc[nH]c2C)[nH]c1=O
